Assays:
[1] = system: MALME-3M; experiment: Melanoma cytotoxicity assay (resazurin); assay type: cell-based; settings: human, 24 h
Experimental: (§1) On day 1, the cell line trypsinized and centrifuged to form cell pellet. The pellet was diluted in media, then counted using Countess automated cell counter. Approximately 4000 cells (198 uL) per well plated in […]. A control well of 200 uL growth media was also prepared. Wells closest to plate perimeter were filled with 200 uL PBS to prevent inner well evaporation. The 96 well plates are incubated in 37° C. incubator at 5% CO2 for 24 hours.
(§2) On day 2, compounds were added (in triplicate) along with DMSO/Dacarbazine controls (2 uL) added to bring wells to volume of 200 μL. The 96 well plates are incubated in 37° C. incubator at 5% CO2 for 24 hours.
(§3) On day 3, 40 μL of 0.15 mg/ml reszurin solution added to wells. Samples were placed in a 37° C. incubator at 5% CO2 for 6 hours. Excitation and emission for fluorescence measured at 544 nm and 590 nm using BMG Labtech Fluostar Optima plate reader
(§4) Percent viability determined by taking average of each triplicate well fluorescence and subtracting GM well reading to remove the background signal. This difference is then divided by the average of the negative control (DMSO) wells to determine percent viability.
(§5) IC50s were determined by using cereal dilution of compound to determine viability. Viabilities and concentration of cells are analyzed in Graphpad Prism by creating sigmoidal curve graph, which will determine the IC50 concentration.
(§6) We analyzed the ability of the thiazole-androstane derivatives to inhibit growth in various melanoma cell lines. The growth inhibition against melanoma cell lines of various compound is shown below in Tables 19 and 20. Inhibition results are reported as the IC50 concentration in μM of the indicated compound or as the percent viability […] of the indicated compound. NA=not available.

[2] = system: SK-MEL-5; experiment: Melanoma cytotoxicity assay (resazurin); assay type: cell-based; settings: for SK-MEL-5 (% viability): human, 24 h
Experimental: (§7) Cytotoxicity Assay: Melanoma cells (˜4000 cells in each well) were incubated in a 96 well plates at 37° C. in 5% CO2 for 24 hours. Compounds were added in triplicates and the plate was further incubated for 24 hours. DMSO and dacarbazine were added as technical and positive controls respectively. Next day resazurin was added and the plate was further incubated for 6 hours followed by reading the plate at 544 nm (excitation) and 590 nm (emission) using BMG Labtech Fluostar Optima plate reader. IC50 values were determined by using Graphpad Prism.
as §1, §2, §3, §4, §5, §6

[3] = system: SK-MEL-25; experiment: Melanoma cytotoxicity assay (resazurin); assay type: cell-based; settings: for SK-MEL-25 (% viability): human, 24 h
Experimental: as §7, §1, §2, §3, §4, §5, §6

[4] = system: SK-MEL-28; experiment: Melanoma cytotoxicity assay (resazurin); assay type: cell-based; settings: for SK-MEL-28 (% viability): human, 24 h
Experimental: as §7, §1, §2, §3, §4, §5, §6

[5] = system: LOX IMVI; experiment: Melanoma cytotoxicity assay (resazurin); assay type: cell-based; settings: for LOX-IMVI (% viability): human, 24 h
Experimental: as §7, §1, §2, §3, §4, §5, §6

[6] = system: NCI-H522 (NSCLC); experiment: NCI 60 one dose screen; assay type: cell-based, human; settings: Non-small Cell Lung Cancer
[7] = system: SF-539; experiment: NCI 60 one dose screen; assay type: cell-based, human; settings: one dose; CNS Cancer; SF-539
[8] = system: HCT-15 (Colon Cancer); experiment: NCI 60 one dose screen; assay type: cell-based, human
[9] = system: 60 different human tumor cell lines; experiment: NCI Development Therapeutics Program 60 cell line screen, one dose; assay type: cell-based
[10] = system: SF-295; experiment: NCI 60 one dose screen; assay type: cell-based, human; settings: one dose; CNS Cancer; SF-295

In the case of `C[C@]12CC[C@H]3[C@@H](CC=C4c5sc(Nc6ccc(C(=O)O)cc6)nc5CC[C@@]43C)[C@@H]1CC[C@@H]2O` [IIIa.26, 4-[[(1S,2R,13R,14S,17S,18S)-17-hydroxy-2,18-dimethyl-8-thia-6-azapentacyclo[11.7.0.02,10.05,9.014,18]icosa-5(9),6,10-trien-7-yl]amino]benzoic acid], the “MALME-3M (% viability)” value [1] is reported as 113.38%, the “SK-MEL-5 (% viability)” value [2] is reported as 93.06% and the “SK-MEL-25 (% viability)” value [3] is reported as 37.03%. The “SK-MEL-28 (% viability)” value [4] was 69.56% and the “LOX-IMVI (% viability)” value [5] was 79%.
In the case of `CN(c1ccccc1)c1nc2c(s1)CC[C@@]1(C)C2=CC[C@@H]2[C@@H]1CC[C@]1(C)C(=O)CC[C@@H]21` [IIa.6, (1S,2R,13R,14S,18S)-2,18-dimethyl-7-(N-methylanilino)-6-thia-8-azapentacyclo[11.7.0.02,10.05,9.014,18]icosa-5(9),7,10-trien-17-one], the “Growth Percent” value [6] is reported as 8.26%, the “Growth Percent” value [7] is reported as 51.35% and the “Growth Percent” value [8] is reported as 35.23%. For the same molecule, the “Growth Percent” value ([9]; Breast Cancer, BT-549) was 45.19%, the “Growth Percent” value ([9]; Breast Cancer, HS 578T) was 54.53% and the “Growth Percent” value ([9]; Breast Cancer, MCF7) was 32.55%. For the same molecule, the “Growth Percent” value ([9]; Breast Cancer, MDA-MB-231/ATCC) was 68.22%, the “Growth Percent” value ([9]; Breast Cancer, MDA-MB-468) was 29.56% and the “Growth Percent” value ([9]; Breast Cancer, T-47D) was 65.84%. For the same molecule, the “Growth Percent” value ([9]; CNS Cancer, SF-268) was 73.87%, the “Growth Percent” value ([9]; CNS Cancer, SNB-19) was 54.72% and the “Growth Percent” value ([9]; CNS Cancer, SNB-75) was 73.17%. For the same molecule, the “Growth Percent” value ([9]; CNS Cancer, U251) was 36.99%, the “Growth Percent” value ([9]; Colon Cancer, COLO 205) was 48.79% and the “Growth Percent” value ([9]; Colon Cancer, HCC-2998) was 82.14%. For the same molecule, the “Growth Percent” value ([9]; Colon Cancer, HCT-116) was 32.71%, the “Growth Percent” value ([9]; Colon Cancer, HT29) was 10.25% and the “Growth Percent” value ([9]; Colon Cancer, KM12) was 33.11%. For the same molecule, the “Growth Percent” value ([9]; Colon Cancer, SW-620) was 44.14%, the “Growth Percent” value ([9]; Leukemia, CCRF-CEM) was 44.17% and the “Growth Percent” value ([9]; Leukemia, HL-60(TB)) was 44.55%. The “Growth Percent” value ([9]; Leukemia, MOLT-4) was 45.63%, the “Growth Percent” value ([9]; Leukemia, RPMI-8226) was 48.36% and the “Growth Percent” value ([9]; Leukemia, SR) was 31.74%. For the same molecule, the “Growth Percent” value ([9]; Melanoma, LOX IMVI) was 66.30%, the “Growth Percent” value ([9]; Melanoma, M14) was 41.12% and the “Growth Percent” value ([9]; Melanoma, MALME-3M) was 55.43%. For the same molecule, the “Growth Percent” value ([9]; Melanoma, MDA-MB-435) was 2.34%, the “Growth Percent” value ([9]; Melanoma, SK-MEL-2) was 49.76% and the “Growth Percent” value ([9]; Melanoma, SK-MEL-5) was 32.53%. The “Growth Percent” value ([9]; Melanoma, SK-MEL-28) was 72.19%, the “Growth Percent” value ([9]; Melanoma, UACC-62) was 38.23% and the “Growth Percent” value ([9]; Melanoma, UACC-257) was 67.13%. The “Growth Percent” value ([9]; Non-small Cell Lung Cancer, A549/ATCC) was 47.72%, the “Growth Percent” value ([9]; Non-small Cell Lung Cancer, EKVX) was 78.34% and the “Growth Percent” value ([9]; Non-small Cell Lung Cancer, HOP-62) was 70.07%. For the same molecule, the “Growth Percent” value ([9]; Non-small Cell Lung Cancer, HOP-92) was 78.79%, the “Growth Percent” value ([9]; Non-small Cell Lung Cancer, NCI-H23) was 79.64% and the “Growth Percent” value ([9]; Non-small Cell Lung Cancer, NCI-H226) was 83.39%. The “Growth Percent” value ([9]; Non-small Cell Lung Cancer, NCI-H322M) was 89.66%, the “Growth Percent” value ([9]; Non-small Cell Lung Cancer, NCI-H460) was 38.69% and the “Growth Percent” value ([9]; Ovarian Cancer, IGROV1) was 67.27%. For the same molecule, the “Growth Percent” value ([9]; Ovarian Cancer, NCI/ADR-RES) was 43.96%, the “Growth Percent” value ([9]; Ovarian Cancer, OVCAR-3) was 36.20% and the “Growth Percent” value ([9]; Ovarian Cancer, OVCAR-4) was 83.97%. For the same molecule, the “Growth Percent” value ([9]; Ovarian Cancer, OVCAR-5) was 98.72%, the “Growth Percent” value ([9]; Ovarian Cancer, OVCAR-8) was 76.81% and the “Growth Percent” value ([9]; Ovarian Cancer, SK-OV-3) was 79.14%. For the same molecule, the “Growth Percent” value ([9]; Prostate Cancer, DU-145) was 79.22%, the “Growth Percent” value ([9]; Prostate Cancer, PC-3) was 71.01% and the “Growth Percent” value ([9]; Renal Cancer, 786-0) was 58.79%. The “Growth Percent” value ([9]; Renal Cancer, A498) was 50.67%, the “Growth Percent” value ([9]; Renal Cancer, ACHN) was 93.66% and the “Growth Percent” value ([9]; Renal Cancer, CAKI-1) was 61.11%. The “Growth Percent” value ([9]; Renal Cancer, RXF 393) was 79.66%, the “Growth Percent” value ([9]; Renal Cancer, SN12C) was 77.26% and the “Growth Percent” value ([9]; Renal Cancer, TK-10) was 91.08%. For the same molecule, the “Growth Percent” value ([9]; Renal Cancer, UO-31) was 79.34%, the “Growth Percent” value [10] was 42.68% and the “SK-MEL-5 (% inhibition)” value ([2]; SK-MEL-5 melanoma cells, 24 hours with compound, resazurin, concentration not given) was 63%. For the same molecule, the “SK-MEL-25 (% inhibition)” value ([3]; SK-MEL-25 melanoma cells, 24 hours with compound, resazurin, concentration not given) was 60% and the “SK-MEL-28 (% inhibition)” value ([4]; SK-MEL-28 melanoma cells, 24 hours with compound, resazurin, concentration not given) was 60%.
With `CCCCNc1nc2c(s1)C1=CC[C@H]3[C@@H]4CC[C@H](O)[C@@]4(C)CC[C@@H]3[C@@]1(C)CC2` [IIIa.4, (1S,2R,13R,14S,17S,18S)-7-(butylamino)-2,18-dimethyl-8-thia-6-azapentacyclo[11.7.0.02,10.05,9.014,18]icosa-5(9),6,10-trien-17-ol] the “MALME-3M (% viability)” value [1] was 4.96%, the “SK-MEL-5 (% viability)” value [2] was 2.1% and the IC50 ([3]; Homo sapiens, SK-MEL-25 melanoma cells (head prints SK-25), read-out: SK-25 IC50) was 16 µM. For the same molecule, the “SK-MEL-25 (% viability)” value [3] was 2.63%, the “SK-MEL-28 (% viability)” value [4] was 1.69% and the IC50 ([5]; Homo sapiens, LOX IMVI melanoma cells) was 7.67 µM. The “LOX-IMVI (% viability)” value [5] was 2%.

— patent publication US20250296953A1, “3,4-THIAZOLO-STEROIDS AND METHODS OF MAKING AND USING THE SAME” (Arkansas State University - Jonesboro, priority 2018, published 2025)
